This is an account of results in ChEMBL document CHEMBL1201862, “PubChem BioAssay data set” (2004).

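Five concentrations, 48 hours, 96-well plates. GI50 = concentration required for 50% inhibition of growth.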 Activity calls are given as the source filed them. Cut-off read from the data, not from the text of the source: active = GI50 up to about 1.1 µM and inactive = higher. Where a SMILES comes first, the peptide text is derived from it. [ ]: non-standard residue; d: D form. The star is where a group is joined. NMeF = CN[CH](Cc1ccccc1)C(=O)O; NMeV = CN[CH](C(=O)O)C(C)C; Boc = CC(C)(C)OC(=O)*; OBn = c1ccc(CO*)cc1

Test systems include HL-60; HOP-62; HT-29; IGROV-1; K562; M14; NCI-H226; NCI-H522; SF-268; SF-295; SF-539; SK-MEL-28; SN12C; SW-620; UO-31; KM12.
Common to all, as to assay: NCI tumour cell line growth inhibition, 48 h

For the molecule `CCC1(CC)C(=O)NC(=O)NC1=S`, the GI50 with HL-60, in the test on HOP-62, with HT-29, in the test with IGROV-1, with K562 and in the test on M14 was > 100 µM (inactive) throughout. The GI50 in the test with NCI-H226, in the test on NCI-H522, with SF-268, with SF-295, with SF-539 and in the test on SK-MEL-28 was > 100 µM (inactive) each time. Further, the GI50 in the test with SN12C, in the test on SW-620 and in the test with UO-31 was > 100 µM (inactive) throughout.
In the case of `COc1ccc(NC(=O)CC2SC(Nc3ccc(Cl)cc3C)=NC2=O)c([N+](=O)[O-])c1` (stereo unspecified), the GI50 in the test on HL-60, with HT-29, in the test with IGROV-1, in the test with K562, in the test on M14 and with NCI-H226 was > 100 µM (inactive) each time. Also, the GI50 with NCI-H522, in the test with SF-268, in the test on SF-295, in the test on SF-539, in the test on SK-MEL-28 and in the test on SN12C was > 100 µM (inactive) each time. The GI50 in the test on SW-620 and with UO-31 was > 100 µM (inactive) in each case.
For the molecule `O=c1c2c(c1=O)-c1ccccc1CN2`, the GI50 in the test on HL-60, with HOP-62, with HT-29, in the test on IGROV-1, in the test on K562 and in the test with KM12 was > 100 µM (inactive) in each case. Besides, the GI50 in the test on M14, in the test with NCI-H226, in the test on NCI-H522, with SF-268, in the test with SF-539 and in the test on SK-MEL-28 was > 100 µM (inactive) in each case. The GI50 in the test with SN12C, with SW-620 and in the test on UO-31 was > 100 µM (inactive) each time.
With `CC(C)OP(=O)(OC(C)C)/C(=N/Nc1ccccc1[N+](=O)[O-])NCCN/C(=N\Nc1ccccc1[N+](=O)[O-])P(=O)(OC(C)C)OC(C)C`, the GI50 was 23.7 µM (inactive) in the test on HL-60; 52.8 µM (inactive) in the test on HOP-62; 27.9 µM (inactive) with IGROV-1; 35.3 µM (inactive) in the test on K562; 40.3 µM (inactive) with KM12; 36.1 µM (inactive) in the test with M14. Further, the GI50 is 24.4 µM (inactive) in the test on NCI-H226; 31.8 µM (inactive) with NCI-H522; 67.1 µM (inactive) in the test with SF-268; 38.1 µM (inactive) with SF-539; 39.4 µM (inactive) in the test with SK-MEL-28; 43.7 µM (inactive) in the test with SN12C. In addition, the GI50 in the test on SW-620 is 35.5 µM (inactive); in the test on UO-31, 29.3 µM (inactive).
Take `[O-][n+]1c2c([n+]([O-])c3ccccc31)CCCCCCCCCC2`: the GI50 was 44.1 µM (inactive) in the test on HL-60; > 100 µM (inactive) in the test on HT-29; > 100 µM (inactive) in the test with IGROV-1; 69.7 µM (inactive) in the test on K562; > 100 µM (inactive) with KM12; > 100 µM (inactive) with M14. Besides, the GI50 is 14.2 µM (inactive) in the test on NCI-H226; 77.1 µM (inactive) in the test on NCI-H522; > 100 µM (inactive) with SF-268; > 100 µM (inactive) in the test on SF-295; > 100 µM (inactive) with SF-539; > 100 µM (inactive) in the test on SK-MEL-28. Further, the GI50 in the test with SN12C, in the test on SW-620 and in the test with UO-31 was > 100 µM (inactive) in each case.
For `O=P1(Oc2ccccc2)C(c2ccccc2)C(c2ccccc2)=NN1c1ccccc1` (stereo unspecified), the GI50 was 15.8 µM (inactive) in the test on HL-60; 24.6 µM (inactive) with HOP-62; 18.3 µM (inactive) in the test with HT-29; 26.2 µM (inactive) in the test on IGROV-1; 24.8 µM (inactive) in the test on K562; 25.8 µM (inactive) in the test with KM12. Further, the GI50 in the test with M14 was 19.7 µM (inactive); with NCI-H226, 23.5 µM (inactive); with NCI-H522, 19 µM (inactive); in the test with SF-268, 29.4 µM (inactive); in the test with SF-295, 28.2 µM (inactive); with SF-539 it was 18.4 µM (inactive). The GI50 with SK-MEL-28 was 25.6 µM (inactive); with SN12C, 25.9 µM (inactive); with SW-620, 21.5 µM (inactive).
With `C=C(NC(=O)C(=C)NC(=O)c1csc(C2=NC3c4csc(n4)C4NC(=O)c5csc(n5)C(C(C)(O)C(C)O)NC(=O)C5CSC(=N5)/C(=C/C)NC(=O)C(C(C)O)NC(=O)c5csc(n5)C3(CC2)NC(=O)C(C)NC(=O)C(=C)NC(=O)C(C)NC(=O)C(C(C)CC)NC2C=Cc3c(C(C)O)cc(nc3C2O)C(=O)OC4C)n1)C(N)=O` (stereo unspecified), the GI50 in the test on HL-60 is 2.69 µM (inactive); with HOP-62, 9.35 µM (inactive); with HT-29, 1.43 µM (inactive); in the test with IGROV-1, 9.06 µM (inactive); in the test with K562, 0.726 µM (active); in the test with KM12, 1.93 µM (inactive). Besides, the GI50 in the test with M14 is 1.67 µM (inactive); with NCI-H226 it was 1.9 µM (inactive); with NCI-H522, 0.287 µM (active); with SF-295, 4 µM (inactive); with SF-539 it was 1.73 µM (inactive); in the test on SK-MEL-28, 1.27 µM (inactive). In addition, the values for the GI50 in the test on SN12C, in the test on SW-620 and in the test with UO-31 were 1.94 µM (inactive), 0.412 µM (active) and > 78.3 µM (inactive), respectively.
As for `CC(C)(CN1CCCCC1)C(=O)CC(SCCN)c1ccc(Cl)cc1` (stereo unspecified), the GI50 in the test on HOP-62 was 3.78 µM (inactive); in the test with HT-29, 1.95 µM (inactive); in the test with IGROV-1, 2.7 µM (inactive); with K562 it was 1.18 µM (inactive); in the test with KM12 it was 1.88 µM (inactive); in the test on M14, 1.82 µM (inactive). Also, the GI50 in the test on NCI-H226 is 3.52 µM (inactive); in the test on NCI-H522 it was 2.18 µM (inactive); with SF-268, 2.78 µM (inactive); in the test with SF-295, 3.22 µM (inactive); in the test on SF-539 it was 1.66 µM (inactive); in the test on SK-MEL-28 it was 3.43 µM (inactive). In addition, the figures for the GI50 in the test with SN12C, with SW-620 and in the test with UO-31 were 1.49 µM (inactive), 1.76 µM (inactive) and 3.35 µM (inactive), respectively.
For the molecule `CC(=O)O[C@]12CCCC1C1(O)C(O)CCCC12` (stereo partly specified), the GI50 in the test with HL-60, in the test on HOP-62, with HT-29, in the test with K562, in the test on KM12 and in the test with M14 was > 100 µM (inactive) each time. Besides, the GI50 in the test on NCI-H226, in the test with NCI-H522, with SF-268, with SF-295, with SK-MEL-28 and with SN12C was > 100 µM (inactive) in each case. Moreover, the GI50 with SW-620 and in the test with UO-31 was > 100 µM (inactive) each time.
As for `O=C1C2c3[nH]c4ccccc4c3C3CCCCC3C2C(=O)N1c1ccccc1` (stereo unspecified), the GI50 in the test with HL-60 is > 100 µM (inactive); in the test with HT-29 it was > 100 µM (inactive); in the test with IGROV-1 it was 72.1 µM (inactive); with K562, 63.8 µM (inactive); with KM12, > 100 µM (inactive); with M14, 36.6 µM (inactive). Moreover, the GI50 was > 100 µM (inactive) in the test on NCI-H226; 72.9 µM (inactive) with SF-268; 48.9 µM (inactive) in the test with SF-295; 34 µM (inactive) in the test with SF-539; > 100 µM (inactive) in the test on SK-MEL-28; > 100 µM (inactive) in the test with SN12C. Further, the GI50 in the test with SW-620 and in the test on UO-31 was > 100 µM (inactive) throughout.
Regarding `O=C(OC1CCC(=C2SCCCS2)[C@H]1C1SCCCS1)c1ccccc1` (stereo partly specified), the GI50 with HL-60 was 52.7 µM (inactive); with HOP-62 it was > 100 µM (inactive); in the test on HT-29, > 100 µM (inactive); with IGROV-1, > 100 µM (inactive); with K562, 75 µM (inactive); in the test on KM12 it was > 100 µM (inactive). Besides, the GI50 was > 100 µM (inactive) in the test with M14; 30.5 µM (inactive) in the test with NCI-H226; > 100 µM (inactive) in the test on SF-295; > 100 µM (inactive) with SF-539; > 100 µM (inactive) in the test with SN12C; > 100 µM (inactive) in the test on SW-620. Also, the GI50 in the test with UO-31 was 24.5 µM (inactive).
With `O=c1ncccn1C1OC(CO)C(O)C1O` (stereo unspecified), the GI50 with HT-29, with IGROV-1, with K562, in the test on KM12, in the test with M14 and in the test with NCI-H226 was > 100 µM (inactive) in each case. Besides, the GI50 in the test on NCI-H522, in the test with SF-268, with SK-MEL-28, in the test on SN12C, in the test with SW-620 and in the test with UO-31 was > 100 µM (inactive) each time.
On to `CC(C)C(NC(=O)OC(C)(C)C)C(=O)N(C)C(Cc1ccccc1)C(=O)N(C)C(C(=O)N(C)C(C(=O)OCc1ccccc1)C(C)C)C(C)C` (stereo unspecified) (Boc-V[NMeF][NMeV][NMeV]-OBn; configuration not given here), for which the GI50 in the test on HL-60 is > 100 µM (inactive); in the test with HOP-62, > 100 µM (inactive); with HT-29, 20.2 µM (inactive); with IGROV-1, > 100 µM (inactive); with K562, > 100 µM (inactive); with KM12, > 100 µM (inactive). The GI50 in the test with M14 was 62.8 µM (inactive); in the test on NCI-H226, > 100 µM (inactive); in the test with NCI-H522, 16.7 µM (inactive); with SF-268, > 100 µM (inactive); with SF-295 it was 51.2 µM (inactive); in the test on SF-539, > 100 µM (inactive). The GI50 with SN12C, in the test with SW-620 and with UO-31 was > 100 µM (inactive) in each case.
